This is an account of results in patent publication US20110065645A1, “Compositions and Methods for Modulating Neuron Degeneration and Neuron Guidance” (The Regents of the University of California, priority 2009, published 2011).

Assay [1] relates to commissural axons. In words: Open book spinal cord explant treatments and DiI injections (midline pathfinding). Format: cell-based. To be noted: rat E13 open-book; 5E1 100 ng/ml, Forskolin 25 μM, KT5720 25 μM; 12-14 hrs. An excerpt:
Blocking Shh activity causes midline guidance defects. To determine the role of Shh in regulating midline pathfinding, we analyzed the trajectory of commissural axons in rat E13 “open-book” spinal cord preparations treated with the function-blocking antibody for Shh, 5E1. The projections of these commissural axons were visualized by injecting the lipophilic dye, DiI, to the dorsal margin of the spinal cord (FIG. 32J). In “open-book” explants, commissural axons can recapitulate the in vivo pathfinding and project from the dorsal spinal cord margin across the floor plate and then turn sharply anteriorly on the contralateral side.^(7,8). […] Normally, after midline crossing, commissural axons make a sharp anterior turn and either project into the ventral funiculus alongside the floor plate or fan out in a highly organized manner to grow laterally into the lateral funiculus^(7) (FIG. 32G). […] The spinal cord midline is a three-dimensional structure. […] Some of the injection sites were therefore scored for more than one category of phenotypes. […]
Shh may induce Sema repulsion by reducing cAMP/PKA signaling. […] In “open-book” explant cultures we treated commissural axons with the activator for adenylyl cyclase (and consequently cAMP), Forskolin and the PKA inhibitor KT5720 and analyzed commissural axon pathfidning by DiI tracing as shown in FIG. 32J. […]

The subject of assay [2] is PKA. Description: Western blot of activated phospho-PKA (Thr197) in dissociated commissural neurons. To be noted: Shh-N 2.5 μg/ml for one hour; KT5720 25 μM for 15 minutes. In kind it is cell-based, rat. The method, then: To confirm that PKA activity can be reduced in commissural neurons exposed to Shh, we treated dissociated spinal cord commissural neurons with Shh and analyzed the level of activated PKA. 24 hr after plating, commissural neurons were serum starved overnight and then treated with 2.5 μg/ml (150 nM) of Shh-N recombinant protein (R&D) for one hour prior to lysate collection. Forskolin (25 μM), and the PKA inhibitor, KT5720 (25 μM) were added to the commissural neuron culture as controls for 15 minutes before lysis. We then tested these lysates for levels of activated PKA with an antibody that specifically recognizes an activated form of the catalytic domain of PKA (phosphorylated at Thr197).
Dissociated commissural neuronal culture. Spinal cords were isolated from rat E13 embryos and commissural neurons were dissociated as previously described.^(8) In brief, embryos were treated with Dispase I (0.25 mg/ml; D4818, Sigma) for 5 minutes prior isolation of spinal cords, followed by collection of spinal cord dorsal domains by microdissection and incubation with Trypsin (1 mg/ml; T47-99, Sigma) for 10-12 min in a 37° C. water bath. The tissue was then triturated with flamed glass pipettes and a single cell suspension was plated on poly-D-lysine (PDL; 20 μg/ml) and laminin (10 μg/ml) coated coverslips or 12 well plates (Corning). More than 90% cells in these cultures express TAG-1, a marker for spinal cord commissural neurons (FIG. 35B). 10^5 dissociated cells were plated on PDL/laminin coated coverslips and cultured for 24 hrs before processed for immunohistochemistry as described above. For Western blot analysis, 10^6 dissociated cells were plated on PDL/laminin coated 12-well tissue culture plates and cultured initially for 24 hrs in dorsal explant media (replenished daily) then changed to low serum medium overnight prior to treatments. […]
A general note: A western blot detects proteins with antibodies after separation by electrophoresis.

In assay [3] the test system is pre-crossing commissural axons. In words: Precrossing commissural explant assay in collagen gel. In kind it is cell-based, rat. To be noted: collagen gel containing Netrin-1 and Shh expressing COS-7 cells. The text has this:
Shh activates Semaphorin repulsion in commissural axons. We investigated the mechanisms by which Semaphorin repulsion in commissural axons is switched on during spinal cord midline pathfinding. Commissural neuron cell bodies are located in the dorsal spinal cord and initially extend axons to the ventral midline, the floor plate, in the process of several days (from late E8.9/early E9.5 in mouse and late E10 and E11 in rats till at least E12.5 in mouse and E14 in rat). The commissural axons in the rostral (anterior) spinal cord differentiate and their axons develop earlier than their caudal (posterior) counterparts. At each axis level, the more dorsal populations tend to differentiate and extend axons later than the ventral population in the dorsal spinal cord during this stage of development. […] To quantify these effects, the total length of axons extending towards (proximal) or away (distal) from cell aggregates (FIG. 31B) was calculated in each experiment as the ratio of axons growing proximally (P) divided by axons growing distally (D) (FIG. 31i). […]
Precrossing commissural explant assay. […] For quantification the total length of axon bundle was measured in the proximal (P) and distal (D) quadrants as depicted in FIG. 31B. […]

“Also recorded” adds a separate entry of the source.

Regarding `CCCCCCOC(=O)[C@]1(O)C[C@@H]2O[C@@]1(C)n1c3ccccc3c3c4c(c5c6ccccc6n2c5c31)C(=O)NC4` [KT5720, reference compound], the “commissural axon midline pathfinding (DiI tracing)” value in assay [1] was “prevented a vast number of axons from entering the floor plate”. Moreover, the “level of activated PKA” value in assay [2] is “reduce the level of activated PKA”.
With “Shh-N: recombinant mouse Sonic Hedgehog, amino-terminal peptide (R&D); also secreted by transfected COS-7 cells”, in assay [2], the “level of activated PKA” value is given as “reduce the level of activated PKA; also recorded: significant reduction of activated PKA”. Further, the “response of pre-crossing commissural axons to Semaphorins” value in assay [3] is “repelled by Sema3B- and Sema3F-secreting cell clumps”.
